Drawing on ChEMBL document CHEMBL4387741, “Optimization of novel reversible Bruton's tyrosine kinase inhibitors identified using Tethering-fragment-based screens” (Bioorg Med Chem, 2019), this text covers inhibition and Papp A→B for two compounds.

Series [1] concerns the target Calcium/calmodulin-dependent protein kinase type 1G (Homo sapiens) (UniProt Q96NX5). Briefly: Inhibition of wild-type human partial length CAMK1G (M1 to A342 residues) expressed in bacterial expression system at 10 uM by Kinomescan method relative to control.
Series [2] concerns the target Serine/threonine-protein kinase DCLK2 (Homo sapiens) (UniProt Q8N568). Briefly: Inhibition of wild-type human partial length DCAMKL2 (K273 to V664 residues) expressed in bacterial expression system at 10 uM by Kinomescan method relative to control.
Series [3] deals with eIF-2-alpha kinase GCN2 (Homo sapiens), Q9P2K8 [S808G]. As to the kind of experiment: Inhibition of wild-type human partial length GCN2 S808G mutant kinase domain 2 (R585 to T1018 residues) expressed in bacterial expression system at 10 uM by Kinomescan method relative to control.
Series [4] concerns the target Rhodopsin kinase GRK7 (Homo sapiens) (UniProt Q8WTQ7). Briefly: Inhibition of wild-type human full length GRK7 (M1 to L553 residues) expressed in mammalian expression system at 10 uM by Kinomescan method relative to control.
The target in series [5] is Hormonally up-regulated neu tumor-associated kinase (Homo sapiens) (UniProt P57058). As to the kind of experiment: Inhibition of wild-type human partial length HUNK (A31 to K354 residues) expressed in bacterial expression system at 10 uM by Kinomescan method relative to control.
Series [6] concerns the target Interleukin-1 receptor-associated kinase 3 (Homo sapiens) (UniProt Q9Y616). As to the kind of experiment: Inhibition of wild-type human partial length IRAK3 (V147 to E596 residues) expressed in bacterial expression system at 10 uM by Kinomescan method relative to control.
Series [7] concerns Mast/stem cell growth factor receptor Kit (Homo sapiens), P10721 [L576P]. Briefly: Inhibition of human partial length KIT L576P mutant (Y545 to D952 residues) expressed in bacterial expression system at 10 uM by Kinomescan method relative to control.
Series [8] addresses Serine/threonine-protein kinase SIK3 (Homo sapiens) (UniProt Q9Y2K2). As to the kind of experiment: Inhibition of wild-type human partial length QSK (A90 to L395 residues) expressed in mammalian expression system at 10 uM by Kinomescan method relative to control.
The target of series [9] is NUAK family SNF1-like kinase 2 (Homo sapiens) (UniProt Q9H093). Briefly: Inhibition of wild-type human partial length SNARK (P22 to A333 residues) expressed in mammalian expression system at 10 uM by Kinomescan method relative to control.
The target of series [10] is SRSF protein kinase 2 (Homo sapiens) (UniProt P78362). As to the kind of experiment: Inhibition of wild-type human full length SRPK2 (M1 to S686 residues) expressed in bacterial expression system at 10 uM by Kinomescan method relative to control.
The target in series [11] is Angiopoietin-1 receptor (Homo sapiens) (UniProt Q02763). As to the kind of experiment: Inhibition of wild-type human partial length TIE2 (N804 to T1112 residues) expressed in bacterial expression system at 10 uM by Kinomescan method relative to control.
Series [12] concerns the target AP2-associated protein kinase 1 (Homo sapiens) (UniProt Q2M2I8). As to the kind of experiment: Inhibition of human wild-type AAK1 (G25 to L333 residues) expressed in bacterial expression system at 1 uM by Kinomescan method relative to control.
Series [13] concerns Tyrosine-protein kinase ABL1 (Homo sapiens), P00519 [T315I]. As to the kind of experiment: Inhibition of human phosphorylated ABL1 T315I mutant (S229 to K512 residues) expressed in mammalian expression system at 1 uM by Kinomescan method relative to control.
The target in series [14] is Activin receptor type-2A (Homo sapiens) (UniProt P27037). Briefly: Inhibition of wild-type human ACVR2A (V171 to T499 residues) expressed in bacterial expression system at 1 uM by Kinomescan method relative to control.
Series [15] has as its target Cyclin-dependent kinase 19 (Homo sapiens) (UniProt Q9BWU1). As to the kind of experiment: Inhibition of wild-type human partial length CDK11 (M1 to N360 residues) expressed in bacterial expression system at 1 uM by Kinomescan method relative to control.
The target in series [16] is Megakaryocyte-associated tyrosine-protein kinase (Homo sapiens) (UniProt P42679). As to the kind of experiment: Inhibition of wild-type human full length CTK (M43 to P508 residues) expressed in mammalian expression system at 1 uM by Kinomescan method relative to control.
The target of series [17] is Serine/threonine-protein kinase DCLK2 (Homo sapiens) (UniProt Q8N568). As to the kind of experiment: Inhibition of wild-type human partial length DCAMKL2 (K273 to V664 residues) expressed in bacterial expression system at 1 uM by Kinomescan method relative to control.
Series [18] has as its target Ephrin type-A receptor 4 (Homo sapiens) (UniProt P54764). Briefly: Inhibition of wild-type human partial length EPHA4 (T601 to R897 residues) expressed in bacterial expression system at 1 uM by Kinomescan method relative to control.
Series [19] deals with Ephrin type-B receptor 1 (Homo sapiens) (UniProt P54762). Briefly: Inhibition of wild-type human partial length EPHB1 (P589 to T911 residues) expressed in bacterial expression system at 1 uM by Kinomescan method relative to control.
For series [20], the system named is Receptor-type tyrosine-protein kinase FLT3 (Homo sapiens), P36888 [N841I]. Briefly: Inhibition of human partial length FLT3 N841I mutant (V592 to Y969 residues) expressed in bacterial expression system at 1 uM by Kinomescan method relative to control.
Series [21] concerns the target Tyrosine-protein kinase JAK1 (Homo sapiens) (UniProt P23458). As to the kind of experiment: Inhibition of wild-type human partial length JAK1 JH1 catalytic domain (V856 to K1154 residues) expressed in bacterial expression system at 1 uM by Kinomescan method relative to control.
Series [22] deals with Serine/threonine-protein kinase Nek4 (Homo sapiens) (UniProt P51957). As to the kind of experiment: Inhibition of wild-type human full length NEK4 (M1 to F841 residues) expressed in mammalian expression system at 1 uM by Kinomescan method relative to control.
Series [23] deals with Cyclin-dependent kinase 2 homolog (Plasmodium falciparum (isolate 3D7)) (UniProt P61075). As to the kind of experiment: Inhibition of wild-type Plasmodium falciparum full length PK5 (M1 to N288 residues) expressed in mammalian expression system at 1 uM by Kinomescan method relative to control.
Series [24] deals with Serine/threonine-protein kinase pim-1 (Homo sapiens) (UniProt P11309). As to the kind of experiment: Inhibition of wild-type human partial length PIM1 (A15 to K313 residues) expressed in bacterial expression system at 1 uM by Kinomescan method relative to control.
Series [25] has as its target Protein kinase C eta type (Homo sapiens) (UniProt P24723). Briefly: Inhibition of wild-type human partial length PRKCH (S324 to P683 residues) expressed in bacterial expression system at 1 uM by Kinomescan method relative to control.
A short description of series [26]: Apparent permeability from apical to basolateral side in human Caco2 cells at 5 uM after 120 mins by LC-MS/MS analysis. Format: ADME, cell-based. The note with it: Caco-2. (Caco-2 cells form a polarised layer with tight junctions and transporters.)
Series [27] concerns the target Mitogen-activated protein kinase kinase kinase 12 (Homo sapiens) (UniProt Q12852). Briefly: Inhibition of wild-type human full length DLK (M1 to P859 residues) expressed in mammalian expression system at 1 uM by Kinomescan method relative to control.

As to `O=C(Nc1cccc([C@H]2CCCN(c3ncnc4[nH]ccc34)C2)c1)Nc1ccccc1N1CCCC1`, the inhibition in series [1] was determined as 85%; in series [2], 83%; in series [3], 46%; in [4], 80%; in series [5] it was 100%; in [6], 92%. Also, the inhibition worked out at 0.2% in series [7]; 88% in [8]; 6.6% in series [9]; 53% in series [10]; 75% in [11].

On to `O=C(Nc1cccc([C@@H]2CN(c3ncnc4[nH]ccc34)CCN2CCO)c1)Nc1c(F)cccc1N1CCCC1`, for which the inhibition in [12] was 75%; in series [13] it was 93%; in series [14] it was 100%; in series [15], 100%; in series [16], 81%; in [17] it was 99%. In addition, the inhibition in series [18] came out at 100%; in [19], 97%; in [20], 28%; in [21], 17%; in series [22], 86%; in series [23] it was 100%. The inhibition was 86% in [24], 80% in series [25] and 79% in [27]. The Papp A→B at 2 h, 5 µM in series [26] was determined as 4 ×10⁻⁶ cm/s.

Usually inhibition stands for the change of the read-out against control, counted positive when it falls. As a reminder, the Papp A→B is how fast a substance crosses the layer from the apical side.
